One test deals with MRSA. The test can be described thus: Non-replicative transduction particle luxAB reporter assay with cefoxitin. The format is cell-based, S. aureus. The conditions noted are these: cells phenotypically resistant to cefoxitin (MRSA); cefoxitin added prior to, simultaneously with, or after transduction particles. From the text: (§1) To test the functionality of non-replicative transduction particles as reporters for detecting the presence of S. aureus cells, various MSSA/MRSA reporter assays were developed. In an embodiment, a non-replicative transduction particle was developed from a S. aureus-specific bacteriophage, and the bacterial luciferase genes luxAB under the control of a constitutive promoter were incorporated. When the non-replicative transduction particle delivered the reporter nucleic acid into S. aureus, the constitutive promoter expressed luxAB suitable for reporting on the presence of a viable S. aureus.
(§2) In addition, the antibiotic cefoxitin was added prior to, simultaneously with, or after the addition of the transduction particles to a sample containing S. aureus cells.
Background: A reporter such as luciferase makes a cellular process visible.

The subject of another test is MSSA. Described as above. In kind it is cell-based, S. aureus. To be noted: cells not phenotypically resistant to cefoxitin (MSSA); cefoxitin added prior to, simultaneously with, or after transduction particles.
Text: as §1, §2

One molecule from US10179939B2, “Growth-independent detection of cells” (GeneWeave Biosciences, Inc., priority 2014, dated 2019) can be followed below.

With `CO[C@@]1(NC(=O)Cc2cccs2)C(=O)N2C(C(=O)O)=C(COC(N)=O)CS[C@@H]21` [cefoxitin], the luminescence result was “increased or detectable luminescence” with MRSA and “decreased or eliminated” in the test with MSSA.
